Assay [1] concerns cellular pERK in NCI-H1975 cells (EGFR/L858R-T790M). Kind of assay: pERK Potency Assay. Conditions: Homo sapiens, 1 hour incubation, Western blot, read-out: IC50 value, cellular pERK level. In kind it is cell-based. The source says: The purpose of this assay is to measure the ability of test compounds to inhibit SOS1 function in cells. SOS1 activates RAS proteins by catalyzing the conversion of RAS-GDP to RAS-GTP in response to receptor tyrosine kinase activation. Activation of RAS induces a sequence of cellular signaling events that results in increased phosphorylation of ERK at Threonine 202 and Tyrosine 204 (pERK). The procedure described below measured the level of cellular pERK in response to test compounds in NCI-H1975 cells (EGFR/L858R-T790M).
NCI-H1975 cells were grown and maintained using media and procedures recommended by the ATCC. On the day prior to compound addition, cells were plated in 24-well cell culture plates (0.9 ml/well) and grown overnight in a 37° C., 5% CO2 incubator. Test compounds were prepared with 3-fold serial dilutions in DMSO, with a top concentration of 10 mM. On the day of the assay, 100 uL of each test compound diluted at 1:100 in media was added to each well of cell culture plate with final concentrations of the compound spanning 0.5 nM to 10 uM. After the compound was added, the cells were incubated for 1 hour at 37° C., 5% CO2. Following incubation, culture medium was removed, and the cells were washed once with phosphate buffered saline and lysed with lysis buffer (20 mM Tris-HCl, pH 7.5, 150 mM NaCl, 1 mM EDTA, 1 mM EGTA, 0.8% NP-40 plus 2× protease and phosphatase inhibitors). Cellular pERK level was determined using the Western blot analysis and quantified with Liqor software. Signal from Western blot was plotted and IC50 values were determined by fitting a 4-parameter sigmoidal concentration response model.
A general note: Immunoblotting shows a protein as a band on a membrane.

The next assay relates to NCI-H1975 cells. Kind of assay: 3D cell proliferation assay. In kind it is cell-based. Conditions: Homo sapiens, ultra low attachment plate, 96 hours, 3D CTG. How it is done: This assay supports the molecular mode of action of compounds. Low IC50 values are indicative of high potency of the SOS1 inhibition. […] This supports the molecular mode of action of the SOS1 inhibitors as selectively targeting cancer cells dependent on receptor tyrosine kinase-RAS/SOS1-family protein function. Cell proliferation assays were performed in three-dimensional (3D) anchorage-independent conditions in 96 well ultra-low attachment plate with the following human cell lines:
NCI-H1975: human non-small cell lung cancer (NSCLC) with wild type KRAS and EGFR L858R/T790M mutation;
Cell lines were purchased from the American Type Culture Collection (ATCC), NCI, or European Collection of Authenticated Cell Cultures (ECACC). All cell lines were maintained in RPMI-1640 or DMEM with 10% heat inactivated fetal bovine serum.
Cells growing in log phase were detached with Gibco™ TrypLE™ Express Enzyme and plated in 96 well ultra low attachment plate at 15000 to 20000 cells/well in 100 μl of media. After overnight incubation at 37° C. and 5% CO2, the cells were treated with compounds (50 μL/well) at the final concentrations spanning 1 nM to 20 μM. Cells were incubated at 37° C., 5% CO2 and 95% humidity incubator for 96 hours. At the end of incubation, a 3D CTG reagent from Promega was added to each well according to vendors recommendation and mixed for 10 minutes in dark. The luminescence signals were determined using Biotek plate reader. The data was fitted using a sigmoidal curve analysis program (GraphPAD Prism) with variable hill slope.

For orientation: IC50 means the concentration that inhibits the measured activity by half. Consider `C#C[C@@H](Nc1ncnc2c1cc(C1(NC(C)=O)CCOCC1)c(=O)n2C)c1cccc(C(F)(F)F)c1C` [Compound 58, (R)-N-(4-(8-methy-4-((1-(2-methyl-3-(trifluoromethyl)phenyl)prop-2-yn-1-yl}amino)-7-oxo-7,8-dihydropyrido[2,3-d]pyrimidin-6-yl)tetrahydro-2H-pyran-4-yl)acetamide], for which the IC50 (in assay [1]; in the assay on NCI-H1975 cells) was less than 100 nM in each case.
In the case of `C#C[C@@H](Nc1ncnc2c1cc(C1(OC)CCN(C(C)=O)CC1)c(=O)n2C)c1cccc(C(F)F)c1F` [Compound 48, (R)-6-(1-acetyl-4-methoxypiperidin-4-yl)-4-((1-(3-(difluoromethyl)-2-fluorophenyl)prop-2-yn-1-yl)amino)-8-methylpyrido[2,3-d]pyrimidin-7(8H)-one], the IC50 (in assay [1]; in the assay with NCI-H1975 cells) was less than 100 nM each time.
`C#C[C@@H](Nc1nc(C)nc2cc(=O)n(C3CCOCC3)cc12)c1cccc(C(F)(F)F)c1C` [Compound 4, (R)-2-methyl-4-((1-(2-methyl-3-(trifluoromethyl)phenyl)prop-2-yn-1-yl)amino)-6-(tetrahydro-2H-pyran-4-yl)pyrido[4,3-d]pyrimidin-7(6H)-one]: the figures for the IC50 (in assay [1]; with NCI-H1975 cells) were less than 100 nM and 100 to 500 nM, respectively.
The like results for `C#C[C@@H](Nc1ncnc2c1cc(C1(OC)CCN(C(C)=O)C1)c(=O)n2C)c1cccc(C(F)F)c1F` (stereo partly drawn) [Compound 49, 6-(1-acetyl-3-methoxypyrrolidin-3-yl)-4-{[(1R)-1-[3-(difluoromethyl)-2-fluorophenyl]prop-2-yn-1-yl]amino}-8-methyl-7H,8H-pyrido[2,3-d]pyrimidin-7-one] were, in that order, less than 100 nM and less than 100 nM.
With `C#C[C@@H](Nc1nc(C)nc2c1cc(C1(OC)CCN(C(C)=O)CC1)c(=O)n2C)c1cccc(C(F)(F)F)c1C` [Compound 55, 6-(1-acetyl-4-methoxypiperidin-4-yl)-2,8-dimethyl-4-{[(1R)-1-[2-methyl-3-(trifluoromethyl)phenyl]prop-2-yn-1-yl]amino}-7H,8H-pyrido[2,3-d]pyrimidin-7-one], the IC50 (in assay [1]; in the assay on NCI-H1975 cells) was less than 100 nM each time.
As to `C#C[C@@H](Nc1ncnc2c1cc(C1(O)CCN(C(C)=O)CC1)c(=O)n2C)c1cccc(C(F)F)c1F` [Compound 46, 6-(1-acetyl-4-hydroxypiperidin-4-yl)-4-{[(1R)-1-[3-(difluoromethyl)-2-fluorophenyl]prop-2-yn-1-yl]amino}-8-methyl-7H,8H-pyrido[2,3-d]pyrimidin-7-one], the IC50 (in assay [1]; in the assay with NCI-H1975 cells) was less than 100 nM in each case.
On to `C#C[C@@H](Nc1nc(C)nc2cc(=O)n(C3(C(F)F)CC3)cc12)c1cccc(C(F)(F)F)c1C` [Compound 9, (R)-6-(1-(difluoromethyl)cyclopropyl)-2-methyl-4-((1-(2-methyl-3-(trifluoromethyl)phenyl)prop-2-yn-1-yl)amino)pyrido[4,3-d]pyrimidin-7(6H)-one], for which the figures for the IC50 (in assay [1]; in the assay with NCI-H1975 cells) were 100 to 500 nM and less than 100 nM, respectively.
Turning to `C#C[C@@H](Nc1ncnc2c1cc(C1(NC(C)=O)CCN(C(C)=O)CC1)c(=O)n2C)c1cccc(C(F)(F)F)c1C` [Compound 57, (R)-N-(1-acetyl-4-(8-methy-4-((1-(2-methyl-3-(trifluoromethyl)phenyl)prop-2-yn-1-yl)amino)-7-oxo-7,8-dihydropyrido[2,3-d]pyrimidin-6-yl)piperidin-4-yl)acetamide], the IC50 (in assay [1]; in the assay with NCI-H1975 cells) was less than 100 nM throughout.
Turning to `C#C[C@@H](Nc1nc(C)nc2c1cc(C1(F)CCN(C(C)=O)CC1)c(=O)n2C)c1cccc(C(F)(F)F)c1C` [Compound 56, 6-(1-acetyl-4-fluoropiperidin-4-yl)-2,8-dimethyl-4-{[(1R)-1-[2-methyl-3-(trifluoromethyl)phenyl]prop-2-yn-1-yl]amino}-7H,8H-pyrido[2,3-d]pyrimidin-7-one], the IC50 (in assay [1]; in the assay with NCI-H1975 cells) was less than 100 nM throughout.
`C#C[C@@H](Nc1ncnc2c1cc(C1(O)CCN(C(C)=O)C1)c(=O)n2C)c1cccc(C(F)F)c1F` (stereo partly drawn) [Compound 43, 6-(1-acetyl-3-hydroxypyrrolidin-3-yl)-4-{[(1R)-1-[3-(difluoromethyl)-2-fluorophenyl]prop-2-yn-1-yl]amino}-8-methyl-7H,8H-pyrido[2,3-d]pyrimidin-7-one]: the values for the IC50 (in assay [1]; with NCI-H1975 cells) were less than 100 nM and 100 to 500 nM, respectively.
On to `C#C[C@@H](Nc1nc(C)nc2c1cc(C1(O)CCN(C(C)=O)CC1)c(=O)n2C)c1cccc(C(F)(F)F)c1C` [Compound 54, 6-(1-acetyl-4-hydroxypiperidin-4-yl)-2,8-dimethyl-4-{[(1R)-1-[2-methyl-3-(trifluoromethyl)phenyl]prop-2-yn-1-yl]amino}-7H,8H-pyrido[2,3-d]pyrimidin-7-one], for which the IC50 (in assay [1]; in the assay with NCI-H1975 cells) was less than 100 nM throughout.

The record behind these values is US20220324862A1, “PYRIDOPYRIMIDINONE COMPOUNDS” (Acerand Therapeutics (USA) Limited, priority 2021, published 2022).
